Measurements as given in patent publication US7195888B2, “Calcium-independent phospholipase A2 induces ischemic ventricular arrhythmias and decreases infarction size” (Washington University in St. Louis, priority 2002, dated 2007).
“Also recorded” adds a separate entry of the source.

Tests used:
iPLA2β [1] = test: Acylcarnitine content of ischemic zone of Langendorf perfused hearts by ESI mass spectrometry; parameters: species or system mouse; conditions: BEL 10 uM for 5 min, 15 min ischemia
Experimental: The ischemia-induced increase in acylcarnitines in wild type mice is inhibited by BEL. Moreover, iPLA2β transgenic mice sustain a dramatic increase in acylcarnitine content during myocardial ischemia in comparison to wild type mice.
Next, ischemia was induced by ligating a marginal branch of the LAD coronary artery and ischemia was induced for 15 minutes. Aliquots of the ischemic zone were taken and rapidly frozen. After addition of internal standard, aliquots of frozen tissue were extracted and analyzed for acylcarnitine content by ESI mass spectrometry by comparisons to standard utilizing methods previously described.

iPLA2β [2] = target: T1, iPLA2β (Homo sapiens, UniProt O60733); conditions: racemic BEL; cited from earlier work
T1 sequence (O60733 1-806): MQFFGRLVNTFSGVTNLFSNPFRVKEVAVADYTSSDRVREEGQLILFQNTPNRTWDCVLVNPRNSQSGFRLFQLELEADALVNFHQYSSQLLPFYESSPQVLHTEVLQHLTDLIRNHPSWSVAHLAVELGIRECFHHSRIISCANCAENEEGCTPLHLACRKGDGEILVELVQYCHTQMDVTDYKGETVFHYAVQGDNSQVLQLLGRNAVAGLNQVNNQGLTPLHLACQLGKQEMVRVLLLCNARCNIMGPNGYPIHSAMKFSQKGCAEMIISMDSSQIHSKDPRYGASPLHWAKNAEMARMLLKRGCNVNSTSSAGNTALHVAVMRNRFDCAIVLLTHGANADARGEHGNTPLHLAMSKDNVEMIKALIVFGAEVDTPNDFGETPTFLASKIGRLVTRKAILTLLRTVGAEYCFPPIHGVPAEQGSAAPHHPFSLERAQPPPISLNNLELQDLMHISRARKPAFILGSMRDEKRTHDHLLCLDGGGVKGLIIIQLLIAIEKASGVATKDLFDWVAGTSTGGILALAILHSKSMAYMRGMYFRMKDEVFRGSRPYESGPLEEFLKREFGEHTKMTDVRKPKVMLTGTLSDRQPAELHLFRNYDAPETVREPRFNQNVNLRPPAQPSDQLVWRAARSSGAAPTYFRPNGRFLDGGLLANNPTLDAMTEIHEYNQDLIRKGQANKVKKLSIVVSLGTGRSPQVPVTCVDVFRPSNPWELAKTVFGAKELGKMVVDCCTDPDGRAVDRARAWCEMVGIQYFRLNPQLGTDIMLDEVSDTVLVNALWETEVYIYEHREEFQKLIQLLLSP

[3] = test system: Langendorf-perfused mouse hearts; test: Ischemia-induced ventricular arrhythmias (PVCs, VT) after LAD coronary ligation in isolated Langendorf-perfused mouse hearts; conditions: for frequency of PVCs (PVC frequency/5 min interval) after coronary ligation: BEL 10 μM pretreatment from 5 min before ligation, 30 min ischemia
Experimental: Data are presented as the +/− standard deviation. A, frequency of PVCs in wild type control mouse hearts (open bars, n=19) and in TGiPLA2β transgenic mouse hearts (closed bars, n=24) in the absence of BEL pretreatment (−BEL). Total PVCs were recorded in 5 minute intervals (0–5, 5–10, 10–15, 15–20, 20–25, and 25–30 min) after ligation of the LAD coronary artery in TGiPLA2β and wild-type control Langendorf hearts. The mean PVC frequency per interval (PVC frequency/5 min interval) was then plotted vs time interval after coronary ligation. […] B, The effect of BEL pretreatment (+BEL) on PVC frequency measured in 5 min intervals after coronary litigation. […] C, Frequency histogram showing total episodes of VT in TGiPLA2β transgenics (closed bars, n=24) vs wild-type control hearts (open bars, n=19) with (+) and without (−) BEL pretreatment.
To determine the role of iPLA2β in arrhythmogenesis during acute cardiac ischemia, a Langendorf perfused heart preparation was employed^6. […] The frequency of spontaneous PVCs was higher in hearts expressing iPLA2β compared with controls at each 5 minute time interval examined during 30 minutes of ischemia (p=0.0003 vs WT by MANOVA) (FIG. 4). Multiple episodes of non-sustained VT occurred in TGiPLA2β hearts (9 of 24 hearts) compared with a single episode in one WT heart (1 of 19 hearts) (p=0.002).
Isolated perfused mouse heart preparations were utilized as previously referenced (1). Briefly, a traditionally accepted ex vivo intact model of acute ischemia was studied. The left anterior descending (LAD) coronary artery was occluded in isolated perfused hearts. Mice were anesthetized with sodium pentobarbital (150 mg/kg IP), and their hearts were rapidly excised and placed in oxygenated Krebs-Henseleit buffer containing (in mmol/L): NaCl 118.3, KCl 2.7, MgSO4 1.0, KH2PO4 1.4, NaHCO3 29.0, CaCl2 3.4, and glucose 10, plus insulin 70 mU/L and BSA 2.8%, at 37° C. Hearts were perfused by retrograde aortic flow with oxygenated buffer at 37° C. Flow rates were adjusted to maintain constant perfusion pressures of 45 to 50 mm Hg. Hearts were simultaneously superfused in a bath containing oxygenated buffer at 37° C. to maintain constant temperature.(1) Circulation 101:547–552 (2000).
Ischemic Studies with Isolated Langendorf-Perfused Mouse Hearts. Ventricular tachyarrhythmias induced by acute ischemia were characterized with use of an isolated, Langendorf-perfused heart preparation as described previously by Lerner et al^6 which is incorporated herein in its entirety by reference. Frequencies of spontaneous arrhythmias (PVCs, and episodes of VT) were counted for 30 min after coronary ligation and tablulated as PVC frequency per 5 minute intervals. A run of ventricular tachycardia was defined as 10 or more beats with a cycle length <100 msec. After 30 min, hearts were perfused through the aortic catheter with 1% Evans blue dye. To determine the effects of BEL on induction of arrhythmias after ischemia, hearts were perfused with buffer containing 10 μM BEL beginning 5 min before coronary ligation and during ischemia. All studies were randomized and blinded.

iPLA2γ = target: T2, iPLA2γ (Homo sapiens, UniProt Q9NP80); conditions: racemic BEL; cited from earlier work
T2 sequence (Q9NP80 1-782): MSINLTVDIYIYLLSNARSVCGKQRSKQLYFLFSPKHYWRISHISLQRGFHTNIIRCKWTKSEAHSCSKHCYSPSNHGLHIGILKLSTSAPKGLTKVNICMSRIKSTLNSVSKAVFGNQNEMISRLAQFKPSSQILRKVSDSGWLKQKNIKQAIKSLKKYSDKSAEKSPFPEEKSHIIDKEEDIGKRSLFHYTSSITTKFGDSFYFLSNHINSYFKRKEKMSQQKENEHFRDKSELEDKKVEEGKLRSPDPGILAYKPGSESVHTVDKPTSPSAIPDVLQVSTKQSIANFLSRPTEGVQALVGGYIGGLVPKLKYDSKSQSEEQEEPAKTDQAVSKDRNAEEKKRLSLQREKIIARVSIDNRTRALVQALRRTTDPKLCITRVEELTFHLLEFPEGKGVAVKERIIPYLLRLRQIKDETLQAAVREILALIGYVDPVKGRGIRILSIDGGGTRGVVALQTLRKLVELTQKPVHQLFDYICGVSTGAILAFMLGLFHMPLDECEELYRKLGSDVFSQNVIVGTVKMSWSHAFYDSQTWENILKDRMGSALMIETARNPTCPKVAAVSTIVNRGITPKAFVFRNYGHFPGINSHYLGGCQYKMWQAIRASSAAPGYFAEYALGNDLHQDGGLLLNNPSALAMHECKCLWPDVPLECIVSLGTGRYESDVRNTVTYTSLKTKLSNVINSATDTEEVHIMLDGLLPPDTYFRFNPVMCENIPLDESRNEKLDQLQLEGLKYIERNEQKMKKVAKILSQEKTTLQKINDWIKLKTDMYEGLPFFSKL

iPLA2β [4] = test: ESI/MS quantification of fatty acid release into effluent and accumulation of fatty acids and lysolipids in ischemic zones of Langendorf perfused hearts; parameters: species or system mouse; conditions: hearts from transgenic mice, 15 min LAD occlusion, BEL pretreatment
Experimental: A, Nonesterified fatty acid (NEFA) release obtained from 15 in of effluent from control or ischemic Langendorf hearts. *P<0.001 B, NEFA mass in ischemic heart tissue from WT and TGiPLA2β hearts. *P<0.01. C, Lysophosphatidylcholine (LPC) mass in ischemic tissue from WT and TGiPLA2β hearts. *P<0.0001. Release of NEFA into the effluents (a) and accumulation of NEFA (b) and LPC (c) in ischemic tissue from Langendorf-perfused hearts [WT (light bars) and TGiPLA2β (dark bars)] were measured in the absence or presence of LAD occlusion (ischemia) in the absence (−) or presence […] of BEL pretreatment as indicated.
To determine if ischemia activates iPLA2β catalyzed hydrolysis of lipids in intact myocardium, ESI/MS (electrospray—mass spectrometry) was utilized to quantify the release of fatty acids into the effluent and the accumulation of fatty acids and lysolipids in ischemic zones^19,20. After 15 min of LAD occlusion, increased release of fatty acids was present in the effluents from perfused hearts and both fatty acids and lysolipids accumulated in the ischemic zone of hearts from TG iPLA2β mice but not WT mice (FIG. 3a). […] The concurrent activation of iPLA2β during ischemia in conjunction with the generation of malignant ventricular arrhythmias and their rescue by inhibition of the expressed iPLA2β transgene formally fulfills traditional criteria for proof of a cause and effect relationship between two phenomena (i.e., malignant arrhythmias are not present when virtually no iPLA2β activity is present (WT mice) and malignant arrhythmias are manifest during activation of the expressed iPLA2β transgene by ischemia and arrhythmias are ablated by mechanism-based inhibition of expressed iPLA2β enzymic activity).
Electrospray Ionization Mass Spectrometry of Lipids from Wild type and Transgenic Mouse Myocardium. Lipids were extracted from mouse myocardium (˜50 mg) by a modified Bligh and Dyer technique utilizing 50 mM LiCl in the aqueous layer in the presence of internal standards selected based on their lack of demonstrable endogenous molecular ions in that region^19,20. ESI/MS analysis was performed utilizing a Finnigan TSQ-7000 Spectrometer as previously described^19,20.

ischemic myocardium = test: Infarct size after ischemia in hearts overexpressing iPLA2β; parameters: species or system mouse; conditions: iPLA2β overexpression, BEL treatment
Experimental: Control or iPLA2β transgenic mice were perfused retrograde through the aorta for an equilibration interval prior to the induction of ischemia by ligating the LAD coronary artery. After 15 min. of ischemia the tissue was fixed and the magnitude of infarcted tissue was assessed on a 1 to 5 scale. […] Moreover, the deliberate overexpression of iPLA2β increases infarct size which can be reduced with BEL treatment. Thus the discovery clearly for the first time defines a evidences iPLA2β as a pharmacologic target in any aspect of phospholipase work by discriminating iPLA2β activity from other phospholipases by the traditional pharmacologic criteria of knockdown, inhibition and rescue by inhibition of the species-specific knock down pathophysiology. The evidence is this proof of concept thereby formally provides an intact, functional organ model to test the effect of pharmacologic agents on ischemia induced arrhythmias by inhibition of iPLA2β regulatory networks. […] Collectively, the inventor discovered herein a seminal discovery in that it defines and evidences for the first time in molecular detail a protein target, iPLA2β, for prevention and treatment of ventricular arrhythmias in ischemic zones and identifies a new way to screen for additional targets.

ischemic hearts = conditions: previously shown; cited from earlier work
[5] = TGiPLA2β hearts, BEL 10 μM pretreatment, LAD ligation
[6] = listed as phospholipase A2 mechanism-based inhibitor

| SMILES | ischemia-induced increase in acylcarnitines (iPLA2β [1]; iPLA2β transgenic hearts) | ischemia-induced increase in acylcarnitines (iPLA2β [1]; wild type (control) hearts) | inhibition of iPLA2β (iPLA2β [2]) | frequency of PVCs (PVC frequency/5 min interval) after coronary ligation ([3]; TGiPLA2β hearts) | episodes of ventricular tachycardia / malignant ventricular tachyarrhythmias [3, 5] | hearts with VT / hearts studied [3, 5] | episodes of ventricular tachycardia / malignant ventricular tachyarrhythmias ([3]; TGiPLA2β hearts, BEL 10 μM pretreatment, LAD ligation, listed as phospholipase A2 mechanism-based inhibitor) | frequency of PVCs (PVC frequency/5 min interval) after coronary ligation ([3]; WT control hearts) | inhibition of iPLA2γ (iPLA2γ) | accumulation of lysolipids in ischemic zones (iPLA2β [4]) | release of fatty acids (iPLA2β [4]) | accumulation of lysolipids in ischemic zones (iPLA2β [4]; [6]) | release of fatty acids (iPLA2β [4]; [6]) | infarct size (ischemic myocardium) | arrhythmias in ischemic hearts (ischemic hearts) |
| --- | --- | --- | --- | --- | --- | --- | --- | --- | --- | --- | --- | --- | --- | --- | --- |
| O=C1O/C(=C/Br)CCC1c1cccc2ccccc12 (stereo not drawn) [BEL, (E)-6-(bromomethylene)-3-(1-naphthalenyl)-2H-tetrahydropyran-2-one] | inhibitable; also recorded: inhibited | major portion of acyl carnitine accumulation is BEL inhibitable; also recorded: inhibited | inhibits | inhibited the frequency of PVCs; also recorded: significant decrease in PVC frequency | completely abolished VT; also recorded: rescue of ischemia-induced ventricular tachyarrhythmias; also recorded: significant reduction of VT episodes | 0/10 | rescued transgenic hearts from malignant ventricular dysrhythmias | inhibited the frequency of PVCs; also recorded: reduced PVC frequency | inhibits | nearly completely ablated | nearly completely ablated | completely ablated | completely ablated | reduced |  |
| CCOC(=O)[C@@]1(CCCCCCOc2ccc(Cl)cc2)CO1 [Etomoxir] |  |  |  |  |  |  |  |  |  |  |  |  |  |  | inhibit arrhythmias |
